Each structure is given as a SMILES string. Where a SMILES comes first, the peptide text is derived from it. Bridges are numbered along the chain shown (N, C = ends).

As a reminder, the IC50 is the concentration needed to halve the response being measured.

This assay has as its target T1, recombinant human VEGF165 (Homo sapiens, UniProt P15692).
T1 sequence (P15692 27-191 isoform P15692-4): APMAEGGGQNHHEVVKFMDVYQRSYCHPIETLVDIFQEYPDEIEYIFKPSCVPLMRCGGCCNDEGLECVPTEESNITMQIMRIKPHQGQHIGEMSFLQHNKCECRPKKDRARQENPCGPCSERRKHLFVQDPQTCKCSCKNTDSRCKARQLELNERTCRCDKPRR
In words: VEGF peptide binding assay (competition ELISA, VEGF165 binding to coated VEGFR2/Fc). The method, then:
High-binding half-well 96-well plates (Costar #3690) were coated with recombinant human VEGFR2/Fc (50 ng/well) in 50 μl PBS, and incubated at 4° C. overnight. After washing the plates three times with 1× washing buffer (KPL Cat#50-65-00) and blocking with Superblock (Scytek #AAA500) at room temperature (RT) for 1 hour, VEGF-peptides of the invention were serially diluted (concentrations: 0.128-10,000 nM) in the presence of 25 ng/ml of recombinant human VEGF165 in […] Superblock, and were then added to the 96-well plates and incubated at RT for 1 hour. Peptides of the invention tested in this fashion were all capped at the amino terminus with a C(O)CH3 group and at the carboxyl terminus with a NH2 group. The plates were then washed three times with washing buffer, and a diluted (1:500) biotinylated anti-human VEGF antibody (R&D systems, Cat# BAF293) was added and incubated at RT for 2 hours. After washing the plates, streptavidin HRP conjugate (1:200 in Superblock) (R&D systems, Cat# DY998) was added to detect the bound anti-VEGF antibody, followed by addition of tetramethylbenzidine (TMB) substrate (Pierce, Cat#34021) for color development. The reaction was stopped with 2 M H2SO4. OD450 was measured using SpectraMax (Molecular Device) with a correction wavelength of 540 nm. The data were analyzed using Prism software. OD450 values were plotted as a function of the concentrations of the VEGF peptides. IC50 values, indicative of the potency of the VEGF peptides to inhibit VEGF-VEGFR2 interaction, were obtained using a sigmoid dose-response curve fit in Prism.
A general note: An ELISA detects its analyte on a solid surface through an enzyme-linked reagent.
As for `CC[C@H](C)[C@@H]1NC(=O)[C@H](CC(=O)O)NC(=O)[C@@H](NC(=O)[C@H](CC(N)=O)NC(=O)[C@@H]2CCCN2C(=O)[C@H](CCC(=O)O)NC(=O)[C@@H](NC(C)=O)C(C)C)CSSC[C@@H](C(=O)N[C@@H](Cc2ccccc2)C(=O)N[C@@H](CCC(=O)O)C(=O)N[C@@H](CCCNC(=N)N)C(=O)N[C@@H](CC(C)C)C(=O)N[C@@H](Cc2ccc(O)cc2)C(=O)NCC(=O)N[C@@H](Cc2c[nH]c3ccccc23)C(=O)NCC(N)=O)NC(=O)[C@H](CCC(=O)O)NC(=O)[C@H](Cc2c[nH]c3ccccc23)NC(=O)[C@H](C(C)C)NC(=O)[C@H](Cc2c[nH]c3ccccc23)NC(=O)[C@H](CCSC)NC(=O)[C@H](C(C)C)NC(=O)[C@H](Cc2c[nH]cn2)NC1=O` [Compound 42, VEPNCDIHVMWVWECFERLYGWG] (Ac-VEPNCDIHVMWVWECFERLYGWG-NH2; disulfide 5-15 (inferred)), the IC50 turned out to be 68.2 nM.
The figure for `CC[C@H](C)[C@@H]1NC(=O)[C@H](CC(=O)O)NC(=O)[C@@H](NC(=O)[C@H](CC(N)=O)NC(=O)[C@@H]2CCCN2C(=O)[C@H](CCC(=O)O)NC(=O)[C@@H](NC(C)=O)C(C)C)CSSC[C@@H](C(=O)N[C@@H](Cc2ccccc2)C(=O)N[C@@H](CCC(=O)O)C(=O)N[C@@H](CCCNC(=N)N)C(=O)N[C@@H](CC(C)C)C(=O)N[C@@H](Cc2ccc(O)cc2)C(=O)NCC(=O)NCC(=O)NCC(N)=O)NC(=O)[C@H](C(C)C)NC(=O)[C@H](Cc2c[nH]c3ccccc23)NC(=O)[C@H](C(C)C)NC(=O)[C@H](Cc2c[nH]c3ccccc23)NC(=O)[C@H](CCSC)NC(=O)[C@H](C(C)C)NC(=O)[C@H](Cc2c[nH]cn2)NC1=O` [Compound 43, VEPNCDIHVMWVWVCFERLYGGG] (Ac-VEPNCDIHVMWVWVCFERLYGGG-NH2; disulfide 5-15) is 66 nM; for `CC[C@H](C)[C@@H]1NC(=O)[C@H](CC(=O)O)NC(=O)[C@@H](NC(=O)[C@H](CC(N)=O)NC(=O)[C@@H]2CCCN2C(=O)[C@H](CCC(=O)O)NC(=O)[C@@H](NC(C)=O)C(C)C)CSSC[C@@H](C(=O)N[C@@H](Cc2ccccc2)C(=O)N[C@@H](CCC(=O)O)C(=O)N[C@@H](CCCNC(=N)N)C(=O)N[C@@H](CC(C)C)C(=O)N[C@@H](Cc2ccc(O)cc2)C(=O)NCC(=O)N[C@@H](CC(C)C)C(=O)N[C@@H](Cc2ccc(O)cc2)C(N)=O)NC(=O)[C@H](CCC(=O)O)NC(=O)[C@H](Cc2c[nH]c3ccccc23)NC(=O)[C@H](C(C)C)NC(=O)[C@H](Cc2c[nH]c3ccccc23)NC(=O)[C@H](CCSC)NC(=O)[C@H](C(C)C)NC(=O)[C@H](Cc2c[nH]cn2)NC1=O` [Compound 44, VEPNCDIHVMWVWECFERLYGLY] (Ac-VEPNCDIHVMWVWECFERLYGLY-NH2; disulfide 5-15 (inferred)) it is 54.6 nM.
As to `CC[C@H](C)[C@@H]1NC(=O)[C@H](CC(=O)O)NC(=O)[C@@H](NC(=O)[C@H](CC(N)=O)NC(=O)[C@@H]2CCCN2C(=O)[C@H](CCC(=O)O)NC(=O)[C@@H](NC(C)=O)C(C)C)CSSC[C@@H](C(=O)N[C@@H](Cc2ccccc2)C(=O)N[C@@H](CCC(=O)O)C(=O)N[C@@H](CCCNC(=N)N)C(=O)N[C@@H](CC(C)C)C(=O)N[C@@H](CO)C(=O)NCC(=O)NCC(=O)NCC(N)=O)NC(=O)[C@H](CCC(=O)O)NC(=O)[C@H](Cc2c[nH]c3ccccc23)NC(=O)[C@H](C(C)C)NC(=O)[C@H](Cc2c[nH]c3ccccc23)NC(=O)[C@H](CCSC)NC(=O)[C@H](C(C)C)NC(=O)[C@H](Cc2c[nH]cn2)NC1=O` [Compound 45, VEPNCDIHVMWVWECFERLSGGG] (Ac-VEPNCDIHVMWVWECFERLSGGG-NH2; disulfide 5-15 (inferred)), the IC50 came to 51 nM.
For the compound `CC[C@H](C)[C@@H]1NC(=O)[C@H](CC(=O)O)NC(=O)[C@@H](NC(=O)[C@H](CC(N)=O)NC(=O)[C@@H]2CCCN2C(=O)[C@H](CCC(=O)O)NC(=O)[C@@H](NC(C)=O)C(C)C)CSSC[C@@H](C(=O)N[C@@H](Cc2ccccc2)C(=O)N[C@@H](CCC(=O)O)C(=O)N[C@@H](CCCNC(=N)N)C(=O)N[C@@H](CC(C)C)C(=O)N[C@@H](CCSC)C(=O)N[C@@H](CCCNC(=N)N)C(=O)N[C@@H](CC(C)C)C(=O)N[C@H](C(N)=O)[C@@H](C)O)NC(=O)[C@H](CCC(=O)O)NC(=O)[C@H](Cc2c[nH]c3ccccc23)NC(=O)[C@H](C(C)C)NC(=O)[C@H](Cc2c[nH]c3ccccc23)NC(=O)[C@H](CCSC)NC(=O)[C@H](C(C)C)NC(=O)[C@H](Cc2c[nH]cn2)NC1=O` [Compound 46, VEPNCDIHVMWVWECFERLMRLT] (Ac-VEPNCDIHVMWVWECFERLMRLT-NH2; disulfide 5-15 (inferred)), the IC50 was determined as 44.1 nM.
The figure for `CC[C@H](C)[C@@H]1NC(=O)[C@H](CC(=O)O)NC(=O)[C@@H](NC(=O)[C@H](CC(N)=O)NC(=O)[C@@H]2CCCN2C(=O)[C@H](CCC(=O)O)NC(=O)[C@@H](NC(C)=O)C(C)C)CSSC[C@@H](C(=O)N[C@@H](Cc2ccccc2)C(=O)N[C@@H](CCC(=O)O)C(=O)N[C@@H](CCCNC(=N)N)C(=O)N[C@@H](CC(C)C)C(=O)N[C@@H](Cc2ccc(O)cc2)C(=O)NCC(N)=O)NC(=O)[C@H](CCC(=O)O)NC(=O)[C@H](Cc2c[nH]c3ccccc23)NC(=O)[C@H](C(C)C)NC(=O)[C@H](Cc2c[nH]c3ccccc23)NC(=O)[C@H](CCSC)NC(=O)[C@H](C(C)C)NC(=O)[C@H](Cc2c[nH]cn2)NC1=O` [Compound 47, VEPNCDIHVMWVWECFERLYG] (Ac-VEPNCDIHVMWVWECFERLYG-NH2; disulfide 5-15 (inferred)) is 43.3 nM; for `CC[C@H](C)[C@@H]1NC(=O)[C@H](CC(=O)O)NC(=O)[C@@H](NC(=O)[C@H](CC(N)=O)NC(=O)[C@@H]2CCCN2C(=O)[C@H](CCC(=O)O)NC(=O)[C@@H](NC(C)=O)C(C)C)CSSC[C@@H](C(=O)N[C@@H](Cc2ccccc2)C(=O)N[C@@H](CCC(=O)O)C(=O)N[C@@H](CCCNC(=N)N)C(=O)N[C@@H](CC(C)C)C(=O)N[C@H](C(=O)N[C@@H](CCCCN)C(N)=O)C(C)C)NC(=O)[C@H](CCC(=O)O)NC(=O)[C@H](Cc2c[nH]c3ccccc23)NC(=O)[C@H](C(C)C)NC(=O)[C@H](Cc2c[nH]c3ccccc23)NC(=O)[C@H](CCSC)NC(=O)[C@H](C(C)C)NC(=O)[C@H](Cc2c[nH]cn2)NC1=O` [Compound 48, VEPNCDIHVMWVWECFERLVK] (Ac-VEPNCDIHVMWVWECFERLVK-NH2; disulfide 5-15 (inferred)) it is 42.4 nM.
As for `CC[C@H](C)[C@@H]1NC(=O)[C@H](CC(=O)O)NC(=O)[C@@H](NC(=O)[C@H](CC(N)=O)NC(=O)[C@@H]2CCCN2C(=O)[C@H](CCC(=O)O)NC(=O)[C@@H](NC(C)=O)C(C)C)CSSC[C@@H](C(=O)N[C@@H](Cc2ccccc2)C(=O)N[C@@H](CCC(=O)O)C(=O)N[C@@H](CCCNC(=N)N)C(=O)N[C@@H](CC(C)C)C(=O)N[C@@H](CCSC)C(=O)N[C@@H](CCCNC(=N)N)C(N)=O)NC(=O)[C@H](CCC(=O)O)NC(=O)[C@H](Cc2c[nH]c3ccccc23)NC(=O)[C@H](C(C)C)NC(=O)[C@H](Cc2c[nH]c3ccccc23)NC(=O)[C@H](CCSC)NC(=O)[C@H](C(C)C)NC(=O)[C@H](Cc2c[nH]cn2)NC1=O` [Compound 49, VEPNCDIHVMWVWECFERLMR] (Ac-VEPNCDIHVMWVWECFERLMR-NH2; disulfide 5-15 (inferred)), the IC50 was determined as 34.5 nM.
The figure for `CC[C@H](C)[C@H](NC(=O)CNC(=O)[C@H](Cc1ccc(O)cc1)NC(=O)[C@H](CC(C)C)NC(=O)[C@H](CCCNC(=N)N)NC(=O)[C@H](CCC(=O)O)NC(=O)[C@H](Cc1ccccc1)NC(=O)[C@@H]1CSSC[C@H](NC(=O)[C@H](CC(N)=O)NC(=O)[C@@H]2CCCN2C(=O)[C@H](CCC(=O)O)NC(=O)[C@@H](NC(C)=O)C(C)C)C(=O)N[C@@H](CC(=O)O)C(=O)N[C@@H]([C@@H](C)CC)C(=O)N[C@@H](Cc2c[nH]cn2)C(=O)N[C@@H](C(C)C)C(=O)N[C@@H](CCSC)C(=O)N[C@@H](Cc2c[nH]c3ccccc23)C(=O)N[C@@H](C(C)C)C(=O)N[C@@H](Cc2c[nH]c3ccccc23)C(=O)N[C@@H](CCC(=O)O)C(=O)N1)C(=O)N[C@@H](CC(C)C)C(N)=O` [Compound 50, VEPNCDIHVMWVWECFERLYGIL] (Ac-VEPNCDIHVMWVWECFERLYGIL-NH2; disulfide 5-15 (inferred)) is 34.4 nM.

The values above are taken from US8937048B2, “Anti-angiogenic compounds” (Covx Technologies Ireland, Limited, priority 2008, dated 2015).
